Tests used:
Assay in all cases: relative viability (nuclei count vs DMSO), 5 days (fraction); higher = more cells survive
[1] = compound: NC(=O)c1ccc(N(C(N)=O)c2c(F)cccc2F)nc1-c1ccc(F)cc1F [VX-702]
Procedure, shortened: (§1)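 MetaXpress counted nuclei in 4× images of lung cancer cell lines that had been fixed, permeabilised and Hoechst-stained in one step. Before that, cells in 1536-well plates were kept overnight at 37 °C, pinned with five √10-spaced library-drug doses on vehicle-anchored plates, and cultured 5 days without medium change. Viability takes treated-well nuclei over vehicle-well nuclei and uses the median across plates. Plates were accepted only at control CV below 25% and at least one doubling.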

[2] = compound: CC(C)(C)c1nc(-c2cccc(NS(=O)(=O)c3c(F)cccc3F)c2F)c(-c2ccnc(N)n2)s1 [Dabrafenib]
Procedure, shortened: as §1

[3] = compound: NC(=O)c1ccc(N(C(N)=O)c2c(F)cccc2F)nc1-c1ccc(F)cc1F [VX-702] + N=C(N)NC(=N)NCCc1ccccc1 [Phenformin] (partner 250 µM)
Procedure, shortened: (§2)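 Cells from lung cancer lines were seeded into 1536-well plates and, one day later, dosed by pin tool. Treatments were either a single drug or a fixed dose of an anchor drug with five library-drug doses (not always all listed) in √10 steps. After 5 days, nuclei were stained in a one-step fixation (final 0.05% Triton X-100, 1% formaldehyde, 1 ug/ml Hoechst) and counted on 4× images, and relative viability is the treated-to-vehicle nuclei ratio, as the median of duplicate plates.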

[4] = compound: CC(C)(C)c1nc(-c2cccc(NS(=O)(=O)c3c(F)cccc3F)c2F)c(-c2ccnc(N)n2)s1 [Dabrafenib] + CC1(C)CCC(c2ccc(Cl)cc2)=C(CN2CCN(c3ccc(C(=O)NS(=O)(=O)c4ccc(N[C@H](CCN5CCOCC5)CSc5ccccc5)c(S(=O)(=O)C(F)(F)F)c4)cc3)CC2)C1 [Navitoclax] (partner 0.5 µM)
Procedure, shortened: as §2

| Cell Line | relative viability ([1]; 0.02 µM) | relative viability ([1]; 0.2 µM) | relative viability ([1]; 0.6325 µM) | relative viability ([1]; 2 µM) | relative viability ([2]; 0.003 µM) | relative viability ([2]; 0.009487 µM) | relative viability ([2]; 0.03 µM) | relative viability ([2]; 0.09487 µM) | relative viability ([2]; 0.3 µM) | relative viability ([3]; first compound 0.02 µM) | relative viability ([3]; first compound 0.2 µM) | relative viability ([3]; first compound 0.6325 µM) | relative viability ([3]; first compound 2 µM) | relative viability ([4]; first compound 0.003 µM) | relative viability ([4]; first compound 0.009487 µM) | relative viability ([4]; first compound 0.03 µM) | relative viability ([4]; first compound 0.09487 µM) | relative viability ([4]; first compound 0.3 µM) |
| --- | --- | --- | --- | --- | --- | --- | --- | --- | --- | --- | --- | --- | --- | --- | --- | --- | --- | --- |
| LU99A | 1.05 | 0.912 | 1.02 | 0.781 | 0.968 | 1.06 | 0.917 | 0.88 | 0.801 | 0.957 | 0.851 | 0.792 | 0.643 | 0.928 | 0.722 | 0.792 | 0.896 | 0.753 |
| LXF-289 | 1.01 | 1.01 | 1.08 | 1.02 | 0.923 | 1 | 1.16 | 0.944 | 1.14 | 0.538 | 0.534 | 0.5 | 0.527 | 0.95 | 0.931 | 1.04 | 0.934 | 0.998 |
| NCI-H358 | 0.965 | 0.857 | 0.916 | 1.1 | – | 1.14 | 0.932 | 1.03 | 1.17 | 0.318 | 0.293 | 0.289 | 0.429 | – | – | – | – | – |
| NCI-H522 | 0.989 | 0.982 | 0.928 | 0.992 | – | 1.2 | 1 | 0.97 | 1.07 | 0.584 | 0.691 | 0.611 | 0.672 | – | – | – | – | – |
| NCI-H650 | 1.04 | – | 1.07 | 1.24 | – | 1.17 | 0.708 | 0.575 | 0.564 | 0.515 | – | 0.44 | 0.524 | – | – | – | – | – |
| NCI-H661 | 1.02 | 0.98 | 1.04 | 1.1 | 0.988 | 0.967 | 0.94 | 0.986 | 0.958 | 0.296 | 0.329 | 0.298 | 0.299 | – | – | – | – | – |
| NCI-H1299 | 1.09 | 0.994 | 1.07 | 1.12 | 0.991 | 0.988 | 0.963 | 0.92 | 0.842 | – | – | – | – | 0.997 | 1.02 | 1.06 | 1.01 | 1.01 |
| NCI-H1563 | 0.991 | 1.06 | 0.976 | 1.07 | 0.971 | 1.01 | 0.815 | 0.988 | 1.04 | 0.702 | 0.684 | 0.694 | 0.592 | – | – | – | – | – |
| NCI-H1623 | 0.834 | 0.943 | 1.02 | 0.905 | – | 0.969 | 0.924 | 1.03 | 1.13 | 0.583 | 0.469 | 0.917 | 0.535 | – | – | – | – | – |
| NCI-H1648 | 0.926 | 0.877 | 0.688 | 0.63 | 1.02 | 0.861 | 0.814 | 1.12 | 1.17 | – | – | – | – | – | – | – | – | – |
| NCI-H1703 | 0.936 | 0.91 | 0.849 | 1.21 | 1 | 1.12 | 0.887 | 0.843 | 1.14 | – | – | – | – | 1.33 | 1.41 | 1.6 | 0.951 | 1.09 |
| NCI-H2342 | 0.987 | 1.07 | 0.903 | 1.09 | 0.864 | 0.988 | 0.856 | 1.06 | 1.1 | 0.594 | 0.686 | 0.58 | 0.719 | – | – | – | – | – |

From the supplement of paper PMC10307832
